# T1: lambda phosphatase (Escherichia phage lambda, UniProt P03772)
# T1 sequence (P03772 1-221): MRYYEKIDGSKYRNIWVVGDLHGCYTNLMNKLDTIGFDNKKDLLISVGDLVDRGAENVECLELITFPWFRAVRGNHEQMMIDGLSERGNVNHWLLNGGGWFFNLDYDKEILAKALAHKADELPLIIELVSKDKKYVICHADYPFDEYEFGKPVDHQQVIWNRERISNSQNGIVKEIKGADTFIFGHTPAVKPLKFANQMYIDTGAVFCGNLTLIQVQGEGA
# What was measured:
# [1] = system: ShhRE; assay: ShhRE-tkCAT reporter mRNA and enzyme activity in P19 cells with cycloheximide; format: cell-based, mouse; conditions: 50 μM for 14 hours
# Method: Methods described in Example 6 were used in addition to the following protocols. P19 cells were co-transfected with either three copies of the ShhRE or mutant ShhRE (mShhRE) element placed upstream of the tk-CAT along with tk-LUC plasmid as an internal control. Cells were treated with 1.0 nM Shh-N (12 hours) and with or without 50 μM cycloheximide (Chx) for 14 hours and harvested to obtain total RNA. Sixty μg of total RNA from these cells were used in an RNase protection assay. RNase protection assays were performed as described in Example 6. Specific riboprobes were generated to analyze the relative levels of the CAT and LUC mRNA levels. A 255 bp region of the CAT coding sequence or 123 bp of the luciferase coding region was used to generate an antisense riboprobe and was hybridized with 60 μg of total RNA, obtained from transfected P19 cells. The amount (50 μM) and extent (14 hours) of cycloheximide treatment was based on inhibition of protein synthesis as indicated by a significant loss in reporter enzyme activity.
# [2] = system: PP1 and PP2A enzyme activity; assay: Protein phosphatase assay on nuclear extracts of control and Shh treated P19 cells; format: biochemical, mouse
# Method: P19 cells were treated with or without 1 nM Shh for 36 hours and nuclear extracts from these cells were obtained as described earlier. A protein phosphatase assay system™ (Life Technologies, Bethesda) was used to quantitate the phosphatase activity present in the control and induced extracts. P19 cells were treated with or without 1 nM Shh for 36 hours and nuclear extracts from these cells were obtained and incubated with 2 nM OA or 4 nM Inh-2 protein for 15 minutes at 30° C. Results are expressed as mean±sd from three separate experiments.
# [3] = system: COUP-TFII mRNA; assay: COUP-TFII mRNA in P19 cells, RNase protection assay; format: cell-based, mouse; conditions: for Shh-induced COUP-TFII mRNA: with 1.0 nM Shh-N
# Method: The P19 mouse embryo carcinoma cell line which was earlier shown to contain increased levels of COUP-TF transcripts after retinoid treatment was utilized. Jonk, L. J. C., et al., Mechan. of Dev. (1994) 47:81-97). Conditioned media obtained from COS-1 cells transfected with mouse Shh-N cDNA expression plasmid or purified E. coli expressed recombinant Shh-N was used.
# Briefly, a total of 20 μg RNA was hybridized to a 450 (FIG. 5A) or 120 (FIG. 7B) nucleotide riboprobe that corresponds to the 5′ untranslated region (UTR) of the COUP-TFII gene along with a 670 (FIG. 5A) or 102 (FIG. 7B) nucleotide riboprobe of the murine Cyclophilin A coding region. The RPA II™ kit from Ambion was used to perform the RNase protection assay. The products were subjected to RNase digestion and analyzed on a 6% urea polyacrylamide gel.
# (§1) P-19 cells were treated with phosphatase inhibitors to study the endogenous levels of COUP-TFII mRNA. […] Total RVA was isolated from these cells and 20 μg of RNA was used in a RNase protection assay as described above in Example 6. A region of the murine Cyclophilin A cDNA was used to generate riboprobe and was used as an internal control. P19 cells were co-treated with (FIG. 7C, lane 2, 4, 6, and 7) or without (FIG. 7C, lane 1, 3, and 5) 1.0 nM Shh-N and 5 nM OA (lane 3 and 4), 0.5 nM CyA (FIG. 7C, lane 5 & 6) or 5 nm NoA (FIG. 7C, lane 9). Cells were harvested after 24 hours of treatment and the nuclear extract was obtained for the binding reactions. Extracts were subjected to an EMSA as described earlier.
# [4] = system: ShhRE; assay: EMSA of Shh-induced protein binding to radiolabeled ShhRE, P19 nuclear extracts; format: cell-based, mouse; conditions: 1.0 nM Shh-N, 24 hours
# Method: Methods described in Example 6 were used in addition to the following protocols. P19 cells were treated with or without Shh-N for 24 hours and nuclear extracts were obtained and used in an electrophoretic mobility shift assay (EMSA) with radiolabeled ShhRE. The following oligos were used as competitors or probes in these assays; WT ShhRE—GTTCTACATAATGCGCCG—SEQ ID NO:1; mShhRE—GTTCTACgTgATGCGCCG—SEQ ID NO:3; GliRE—[…]—. SEQ ID NO:4, Different amounts of unlabeled Gli response element (GliRE) (FIG. 5C, lane 3, 100X; lane 4, 50X; lane 5, 25X; and lane 6, 10X) or ShhRE (lane 7; 100X, lane 8; 50X and lane 9; 10X) was used as a competitor at the indicated molar excess.
# In EMSA, radiolabeled probe was incubated with the nuclear extracts (10 μg) along with 4 μg poly dG-dC in a binding reaction containing 10 mM Tris pH 7.5, 50 mM NaCl, 1 mM EDTA, 1 mM DTT, 0.1 mg/ml BSA, and 5% glycerol. Later the mixture was loaded onto a 5% polyacrylamide gel and the retarded complexes were separated-in 1× TBE buffer and analyzed using autoradiography.
# as §1
# [5] = target: T1, lambda phosphatase; assay: Lambda phosphatase treatment of immunoprecipitated Ci, mobility shift; format: biochemical; conditions: 1 mM sodium orthovanadate, 30° C. for 1 hour
# Method: cl-8 cells were incubated in conditioned medium for 4 hours and lysed on ice for 20 minutes in 1 ml of NP-40 lysis buffer per T75 flask. The lysate was incubated with 100 μl of anti-Ci 2A1 or 0.3 μl of normal rat serum at 4° C. for 2 hours. 50 μl of 50% Protein G beads were added and incubated for 1 hour. The beads were collected and washed in NP-40 lysis buffer, then in lambda phosphatase buffer (50 mM Tris pH 7.8, 5 mM dithiothritol, 20 mM MnCl2, […] bovine serum albumin, 20 μg/ml aprotinin, 20 μg/ml leupeptin, 1 μg/ml pepstatin A, 2.5 μg/ml antipain, 100 μM PMSF). The beads were resuspended in 50 μl of lambda phosphatase buffer, plus 1 mM of sodium orthovanadate or 1.5 μl (30 unit) of lambda phosphatase according to the procedure. Each sample was incubated at 30° C. for 1 hour, then washed in NP-40 lysis buffer, and was boiled in SDS sample buffer for analysis.
# [6] = system: Ci; assay: Ci induction in cl-8 cells with or without HH-N conditioned medium, Western blot; format: cell-based, Drosophila; conditions: up to 100 nM, 4 hours, presence of HH or not
# Method: cl-8 cells were cultured as described in Van Leeuwen, F., et al. Nature, 368:342-344, 1994. Culture and transfection of S2 cells were performed as described in Porter, J. A. et al. Cell, 86: 21-34, 1996. The conditioned medium was made by culturing transfected S2 cells in cl-8 medium, and induced by adding CUSO4, to the final concentration of 0.5 Mm overnight. The conditioned medium was harvested the next day, centrifuged to remove S2 cells and the supernatant was used. To make lysate from cl-8 cells, cl-8 cells were washed, harvested in cold phosphate buffered saline (PBS), and then resuspended in NP-40 lysis buffer (150 Mm NaCl, 50 Mm Tris pH8, 1% NP-40, 1 Mm EDTA, 20 μg/ml aprotinin, 20 μg/ml leupeptin, 1 μg/ml pepstatin A, 2.5 μg/ml antipain, 100 μM PMSF, 50 mM NaF, 5 mM Na2P4O7). Cells were lysed at 4° C. for 10 minutes, then centrifuged at 13,000×g for 10 minutes. The supernatant was saved for Western blot analysis.
# SDS-PAGE and protein transfer were carried out by standard methods. The primary antibodies used were: rat monoclonal anti-Ci 2Al 1:20 dilution; mouse monoclonal anti-Ptc 1:1000 dilution; mouse monoclonal anti-actin 1:2500. Secondary antibodies were from Jackson Immunologicals. The filters were developed using SuperSignal from Pierce.
# Tautomycin (TAU) and okadaic acid (OA) were purchased from Calbiochem and dissolved in dimethyl sulfoxide (DMSO) to different concentrations. The phosphatase inhibitors were mixed with conditioned medium and the concentration of DMSO was adjusted to 0.2% for each sample. cl-8 cells were incubated with conditioned medium and phosphatase inhibitor mixture for 4 hours and lysed for analysis.
# [7] = target: phosphatase 1 (PP1); conditions: read-out: IC50, phosphatase 1 (PP1) inhibition; cited from earlier work
molecule,measurement,setting,value
C[C@@H]1C[C@@H]([C@H](O)CC2CC(=O)NC(=O)C2)C(=O)[C@@H](C)C1 [cycloheximide],CAT and luciferase activities,[1],inhibited
same,Shh-induced increase in CAT mRNA,[1]; 1 nM Shh-N,not altered
Shh-N: purified E. coli expressed recombinant amino-terminal fragment of mouse Sonic hedgehog,net increase in phosphatase activity after Shh treatment,"[2]; 1 nM Shh, 36 hours, P19 nuclear extracts",2 fold
same,concentration at which a significant increase in COUP-TFII mRNA was observed,"[3]; P19 cells, 24 hours, densitometric analysis",≤ 0.2 nM
Nor-Okadone [NoA],Shh-induced COUP-TFII mRNA,[3]; 5 nM for 12 hours,incapable of inhibiting
same,Shh-induced binding to radiolabeled ShhRE,[4]; 5 nM,unable to inhibit
[Na+].[Na+].[Na+].[O]=[V]([O-])([O-])[O-] [sodium orthovanadate],effect of lambda phosphatase on Ci mobility,[5],reversed
"CO[C@H]([C@H](O)CC(=O)[C@@H](C)[C@@H](O)CC[C@@H](C)[C@@H]1O[C@]2(CC[C@@H](C)[C@H](CC[C@H](C)C(C)=O)O2)CC[C@@H]1C)[C@H](OC(=O)C[C@@H](O)C1=C(C)C(=O)OC1=O)C(C)C [TAU, Tautomycin]",effect on Ci,[6],did not to have any effect
same,IC50,[7],10 nM
"COC[C@@H]([C@H](O)[C@H](O)C(=O)NCC[C@H](C)c1nc(/C=C/C[C@@H]2O[C@]3(C[C@@H](O)[C@@H]2C)O[C@H]([C@H](C[C@H](O)[C@H](C)[C@H](O)[C@H](C)/C=C(C)/C(C)=C/C=C/C(C)=C\C#N)OC)[C@H](OP(=O)(O)O)C3(C)C)co1)N(C)C [CyA, calyculin A]",Shh-induced COUP-TFII mRNA,[3]; 0.5 nM for 12 hours,complete inhibition
same,Shh-induced binding to radiolabeled ShhRE,[4]; 0.5 nM,abolished
"Inhibitor-2: Inh-2 protein, a specific inhibitor of PP1 (protein, UniProt P41236 2-205, looked up) Protein phosphatase inhibitor …: AASTASHRPIKGILKNKTSTTSSMVASAEQPRGNVDEELSKKSQKWDEMNILATYHPADKDYGLMKIDEPSTPYHSMMGDDEDACSDTEATEAMAPDILARKLAAAEGLEPKYRIQEQESSGEEDSDLSPEEREKKRQFEMKRKLHYNEGLNIKLARQLISKDLHDDDEDEEMLETADGESMNTEESNQGSTPSDQQQNKLRSS",Shh-induced phosphatase activity,"[2]; 4 nM Inh-2 protein, 15 minutes at 30° C.",unable to inhibit

# From patent US6733971B2, “Method for identifying an agent that affects a hedgehog signaling pathway” (priority 1998, dated 2004)
